Laboratory results from ChEMBL document CHEMBL1136315, “Identification of a novel class of inhibitor of human and Escherichia coli thymidine phosphorylase by in silico screening” (Bioorg Med Chem Lett, 2003).

What was measured:
[1] = target: Thymidine phosphorylase (Escherichia coli) (UniProt P07650); assay: Inhibitory activity (105 uM) against Escherichia coli thymidine phosphorylase
[2] = target: T1, Thymidine phosphorylase (Homo sapiens) (UniProt P19971); assay: Inhibitory activity (134 uM) against Escherichia coli thymidine phosphorylase
T1 sequence (whole entry): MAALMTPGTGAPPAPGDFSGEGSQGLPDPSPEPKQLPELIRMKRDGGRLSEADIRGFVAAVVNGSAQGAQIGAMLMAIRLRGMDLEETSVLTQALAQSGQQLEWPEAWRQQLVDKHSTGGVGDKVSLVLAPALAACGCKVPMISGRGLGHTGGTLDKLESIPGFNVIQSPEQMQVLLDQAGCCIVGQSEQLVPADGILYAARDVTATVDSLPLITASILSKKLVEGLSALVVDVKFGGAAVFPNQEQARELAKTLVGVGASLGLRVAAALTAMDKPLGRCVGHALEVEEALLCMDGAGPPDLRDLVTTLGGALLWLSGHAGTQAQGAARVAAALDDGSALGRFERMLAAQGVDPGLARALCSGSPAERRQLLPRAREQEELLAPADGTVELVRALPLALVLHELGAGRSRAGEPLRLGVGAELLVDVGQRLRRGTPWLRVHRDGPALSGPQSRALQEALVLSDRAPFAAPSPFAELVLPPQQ

Thymidine phosphorylase (Escherichia coli), sequence (P07650 whole entry, looked up): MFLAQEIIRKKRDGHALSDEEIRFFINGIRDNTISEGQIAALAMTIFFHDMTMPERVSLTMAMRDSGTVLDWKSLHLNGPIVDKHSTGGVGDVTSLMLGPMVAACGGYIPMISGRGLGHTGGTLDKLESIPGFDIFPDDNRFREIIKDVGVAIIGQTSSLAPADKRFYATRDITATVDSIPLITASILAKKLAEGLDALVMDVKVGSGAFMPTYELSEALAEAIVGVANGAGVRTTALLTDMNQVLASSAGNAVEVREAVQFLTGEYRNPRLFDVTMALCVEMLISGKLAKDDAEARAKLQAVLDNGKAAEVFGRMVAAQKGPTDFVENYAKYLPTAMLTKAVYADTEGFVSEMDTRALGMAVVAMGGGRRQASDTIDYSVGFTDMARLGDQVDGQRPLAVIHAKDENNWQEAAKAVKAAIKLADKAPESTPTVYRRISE

Work on `CCCCC1(/C=N/N=C(/N)S)NC(=O)NC1=O` (configuration not stated) yielded an inhibition [1] of 23%.

In the case of `C=CCN/C(S)=N/C=C1C(=O)NC(=O)NC1=O`, the inhibition [2] is reported as 60%.
